Laboratory results from ChEMBL document CHEMBL1136361, “5-amino-1-(2,6-dichloro-4-trifluoromethyl-phenyl)-3-[3H3]-methylsulfanyl-1H-pyrazole-4-carbonitrile (CTOM): synthesis and characterization of a novel and selective insect GABA receptor radioligand” (Bioorg Med Chem Lett, 2003).

Legend:
[1] = In vitro binding affinity against GABA receptor in house fly; design: species or system Musca domestica
[2] = In vitro binding affinity against GABA receptor in mouse brain; type: tissue-based
[3] = Mortality percent was determined in flea; range is 50-100%; type: ADME; conditions: pulicinae

Row | Ki [1] [nM] | Ki [2] [nM] | SMILES | Mortality [3] [%]
1 | 8 | 4 | CSc1nn(-c2c(Cl)cc(C(F)(F)F)cc2Cl)c(N)c1C#N | –
2 | – | – | N#Cc1nn(-c2c(Cl)cc(C(F)(F)F)cc2Cl)c(N)c1[S+]([O-])C(F)(F)F (stereo not drawn) [FIPRONIL] | 50
